Like-named read-outs stand apart in the source and are kept apart here.
Key:
[1] = tested on: methicillin resistant S. aureus (MRSA) LUH14616; type: cell-based, Staphylococcus aureus
Description: (§1) Peptides were incubated with 1×10^6 CFU/ml of a mid-logarithmic culture of S. aureus JAR060131, methicillin resistant S. aureus (MRSA) LUH14616, Staphylococcus epidermidis RP62a, and Pseudomonas aeruginosa PAO1 in PBS without or with addition of pooled human plasma (Sanquin, Amsterdam, the Netherlands) at a final concentration of 50%. Antimicrobial activity is expressed as the 99.9% lethal concentration (LC99.9), i.e., the lowest peptide concentration which killed ≥99.9% of bacteria after 2 hours of incubation at 37° C. under shaking conditions.

[2] = tested on: stationary phase S. aureus JAR060131; type: cell-based, Staphylococcus aureus
Description: Bacteria were stored at −80° C. until use. Inoculi of mid log phase bacteria were prepared by incubating isolated bacterial colonies from blood agar plates in Tryptic Soy Broth (TSB) medium (Becton Dickinson, Le Pont de Clax, France) for 2.5 hours and then diluted to the concentration needed. Stationary phase S. aureus JAR060131 was obtained from 18-20 hour cultures.
To assess the antimicrobial activity of the peptides towards stationary phase bacteria, peptides were incubated under the conditions described above with 1×10^6 CFU/ml of stationary phase S. aureus JAR060131, obtained from 18-20 hour cultures.

[3] = tested on: Pseudomonas aeruginosa PAO1; type: cell-based
Description: as §1

[4] = tested on: Staphylococcus epidermidis RP62a; type: cell-based
Description: as §1

A. niger PagsA-lux = test: Effect on fungal growth; type: cell-based, Aspergillus niger
Description: The effect of the peptides on fungal growth was assessed using Aspergillus niger. Peptides were incubated with 7.5×10^4 spores/ml of A. niger PagsA-lux in PBS without or with addition of pooled human plasma at a final concentration of 25%. As positive control, spores were treated with the antifungal caspofungin (Cancidas). Absorbance was measured over time and at 16 hours, fungal growth was visualized using light microscopy.

Candida albicans Y-O1 = type: cell-based
Description: Peptides were incubated with 1×10^5 cells/ml of a mid-logarithmic culture of Candida albicans Y-O1, without or with addition of pooled human plasma at a final concentration of 50%. Antimicrobial activity is expressed as the 99% lethal concentration (LC99), i.e., the lowest peptide concentration at which ≥99% of cells were killed after 2 hours of incubation at 37° C. under shaking conditions.

[5] = tested on: S. aureus JAR060131 biofilm formation; type: cell-based, Staphylococcus aureus
Description: After solubilization with ethanol, the optical density at 590 nm is determined as a measure of biofilm mass.
Peptides were incubated with 1×10^8 CFU/ml of S. aureus JAR060131 in biofilm-adjusted BM2 in 96-wells polypropylene plates as described in Antimicrob Agents Chemother 2012; 56: 2696-2704. After 24 hours incubation at 37° C., planktonic bacteria were removed by four washes with PBS and biofilms were stained with crystal violet. After solubilization with ethanol, the optical density at 590 nm was determined as a measure of biofilm mass.
To assess the antibiofilm activity of the peptides in the presence of plasma, 96-wells polypropylene plates were coated with plasma by overnight incubation with 20% plasma at 4° C. Wells were washed once with sterile water and inoculated with S. aureus and peptides as described above.

[6] = tested on: LTA (S. aureus)-induced IL-8 production; test: LTA neutralization in whole human blood; type: cell-based; conditions: LTA-induced IL-8; blood from one donor
From the text: The term “anti-inflammatory activity” of a polypeptide as used herein refers to inhibiting, reducing or preventing an inflammatory response in a subject that has been infected by microbes, e.g. bacteria, viruses, fungi, and/or parasites. Anti-inflammatory activity of polypeptides of the invention is achieved by inhibiting, reducing or preventing the release of pro-inflammatory microbial compounds, such as lipoteichoic acid (LTA), peptidoglycan (PG) and/or lipopolysaccharides (LPS). Anti-inflammatory activity can be measured by methods known in the art. Examples of such method are a LPS neutralization assay and a LTA neutralization assay as described in the Examples of this application. In such method, a polypeptide of the invention is mixed with a fixed concentration of LPS or LTA, such as 500 ng/ml LPS or 2 mg/ml LTA, and incubated for 30 min. Thereafter, these mixtures were added to diluted fresh human whole blood and 20 hours thereafter the level of cytokines (e.g. 1L-8 for LTA and 1L-12p40 for LPS) in the blood sample are measured by ELISA.
(§2) Peptides were pre-incubated with 500 ng/ml LPS (E. coli 054) or 2 mg/ml LTA (S. aureus, endotoxin-free) or 1×10^9 CFU/ml of UV-killed S. aureus JAR060131 for 30 min at 37° C. Diluted whole human blood was stimulated with the peptide-LPS/LTA/S. aureus mixtures for 20 hours at 37° C. IL-12p40 and IL-8 levels in supernatants were determined using ELISA.

[7] = tested on: UV-killed S. aureus JAR060131-induced IL-8 production; test: S. aureus neutralization in whole human blood; type: cell-based; conditions: UV-killed S. aureus JAR060131-induced IL-8; blood from one donor
Description: as §2

bacteria = type: cell-based
From the text: The currently known AMPs, including OP-145, still have a few drawbacks. For instance, various bacteria, such as P. aeruginosa, E. faecalis, Proteus mirabilis, Streptococcus pyogenes and S. aureus all secrete proteases that degrade several antimicrobial peptides, such as the cathelicidin LL-37. Thus, protease resistant antimicrobial peptides are advantageous from a therapeutical standpoint. Furthermore, due to potential lytic effect as well as other properties of AMPs against bacterial but also mammalian membranes, one of the challenges in designing new peptides relies on developing AMPs with high specificity against microorganisms such as bacterial or fungal cells as compared to cellular membranes of the infected patient, i.e., a high therapeutic index (minimal hemolytic concentration/minimal antimicrobial activity; MHC/MEC). Another important disadvantage of known AMPs, including OP-145, is that its activity is strongly affected by the presence of plasma components. For instance, for OP-145 the LC99.9 (the lowest peptide concentration which kills ≥99.9% of bacteria) in PBS of 1.6 μM, whereas the LC99.9 in PBS/plasma (1:1) is about 200 μM. This is in particular a disadvantage for systemically administered AMPs.

[8] = 50% plasma, mid-logarithmic culture, median (Table 3)

Ac-IGKEFKRIVERIKRFLRELVRPLR-NH2 [OP-145, JIGKEFKRIVERIKRFLRELVRPLRB, reference compound]
LC99.9 [1, 8]: 204.8 µM
LC99.9 ([1]; methicillin resistant LUH14616): 1.6 µM
LC99.9 ([2]; 50% plasma, stationary suspension, mean of three experiments (Table 4)): >204.8 µM
LC99.9 ([2]; stationary phase JAR060131): 1.6 µM
LC99.9 [3, 8]: >204.8 µM
LC99.9 ([3]; PAO1): 3.2 µM
LC99.9 [4, 8]: 204.8 µM
LC99.9 ([4]; RP62a): 0.8 µM
concentration inhibiting A. niger growth (A. niger PagsA-lux; 25% plasma, light micrographs only, 16 hours (FIG. 2)): 204.8 µM
concentration inhibiting A. niger growth (by >99.9%) (A. niger PagsA-lux; PBS, optical density (FIG. 1)): 3.2 µM
antifungal activity against C. albicans Y-O1 (in words) (Candida albicans Y-O1; 50% plasma, at 204.8 μM): no antifungal activity was observed
LC99 (Candida albicans Y-O1; 50% plasma, mean of two experiments): >204.8 µM
antifungal activity against C. albicans Y-O1 (in words) (Candida albicans Y-O1; PBS, at 51.2 μM): no antifungal activity
LC99 (Candida albicans Y-O1; Y-O1, 2 h): >51.2 µM
IC50 ([5]; JAR060131 biofilm formation, 24 h): 3200 nM
IC50 ([5]; plasma-coated wells (FIG. 3B), read-out: concentration inhibiting biofilm formation for 50%): 3200 nM
IC50 [6]: 0.781 µM
IC50 [7]: 0.195 µM
LC99.9 (bacteria; PBS): 1.6 µM
LC99.9 (bacteria; PBS/plasma (1:1)): about 200 μM
